According to patent US20260335341A1, “METHODS FOR TREATING PAEDIATRIC NEUROLOGICAL DISORDERS” (Neurotech International Limited, priority 2022, published 2026):
Values joined by “and” are separate entries in the source; they are usually repeats but may differ in a detail not shown here. Equal values may be shown once. Read-outs that look alike come from different tables or passages of the source.

Columns and labels:
[1] = test system: neutrophil; conditions: cited from earlier work
[2] = test system: cannabinoid receptor type 1 (CB1); conditions: cited from earlier work
[3] = test system: COX-2; assay: COX-2 expression, immunohistochemistry, human derived microglial cells (Example 4); type: cell-based; conditions: 2 μg/ml, N = 9
Procedure: (§1) Immunohistochemistry (Protein Level) Assay: Cells were fixed for 10 min with 4% paraformaldehyde (PFA) in PBS. After 3×5 minutes washing with PBS, cells were incubated with primary antibodies (anti-COX2) 1:1000 overnight at 4 °C, and after 3×5 minutes washing in PBS, cells were then incubated in appropriate fluorescent secondary antibody 1:250 (Invitrogen) for 2 hours at room temperature. After a final wash, as previous, cells nuclei were sained with DAPI in the mounting media. Photomicrographs were taken of the cells in three fields of view per well from duplicate wells and analysed using Fiji for area coverage of each marker.
(§2) The tubes are then placed in a sonication bath for 10 mins at 35-40 C. Upon completion of the sonication samples are then placed in a tray shaker (200 rpm) for 30 minutes at room temperature. Once completed the samples are then centrifuged at 4400 rpm for 5 minutes. The supernatant is collected for testing and development.
(§3) For the CBD sample, a pure standard (in powder form) was used. CBD 98% isolate was purchased as a reference standard from LGC Standards (London UK) (CAS No. 13956-29-1). The CBD standard reference was prepared at concentration of 1 mg/ml (in acetonitrile). CBD dilutions were made in acetonitrile as follows: 2 μg/ml; 6 μg/ml; and 0.1 μg/ml.

[4] = test system: IL-12; assay: IL-12 level in microglial media, multiplex cytokine assay (Example 4); type: cell-based, human; conditions: 2 μg/ml; interleukin and interferon activation; control 99.91
Procedure: (§4) Multiplex Cytokine/Chemokine Assay: Microglia media harvested following treatment initiation was centrifuged briefly to remove particulates (300 g for 10 min). Cytokine and chemokine levels in the microglial media were measured using a Bio-Plex 200 with a 96-well magnetic plate assay according to the manufacturer's instructions (Bio-Rad). Cytokines and chemokines measured included IL-1α, IL-1β, IL-2, IL-6, IL-10, IL-12 (p70), IL-13, G-CSF, GM-CSF, IFNγ, TNFα, CXCL1 (KC), CCL2 (MCP-1), and CCL5 (RANTES). All samples were run in duplicate and data were analyzed with the Bio-Plex Manager software.
as §2, §3

[5] = test system: TNF-alpha; assay: TNF-alpha level in microglial media, multiplex cytokine assay (Example 4); type: cell-based, human; conditions: 2 μg/ml; interleukin and interferon activation
Procedure: as §4, §2, §3

[6] = test system: human microglial cells; assay: DAPI cell viability stain (Example 4); type: cell-based
[7] = test system: COX-2; assay: COX-2 activity, immunohistochemistry, human derived microglial cells, diclofenac combination (Example 6); type: cell-based; parameters: unit not given here; conditions: 2 μg/ml each, I&I inflammation activation, N = 9
Procedure: as §1, with “Human derived microglial cells” for “Immunohistochemistry (Protein Level) Assay: Cells”
COX-2 is measured using the immunohistochemistry assay—as described above. […] In the treatment groups, these cells are also treated with various treatments and COX-2 expression is then assessed following these treatments (1 hr after treatment).
as §2, with “In this example, ethanol extraction was used. […] The tubes” for “The tubes”
For the CBD sample, a pure standard (in powder form) was used. CBD 98% isolate was purchased as a reference standard from LGC Standards (London UK) (CAS No. 13956-29-1). […]

[8] = animals; cited from earlier work
[9] = test system: excitotoxic cell injury paradigm; assay: Cell death in an excitotoxic cell injury paradigm; type: cell-based, human
Procedure: Neuronal viability was quantified using MTT [3-(4,5-dimethylthiazol-2-yl-)-2,5-diphenyl-2H-tetrazolium bromide; Sigma]. […] Cellular excitotoxicity was achieved via glutamate activation (3 mM).

[10] = test system: cannabinoid receptor type 2 (CB2); conditions: cited from earlier work
[11] = Stability of NTI164 oil formulation at room temperature (UPLC)
[12] = test system: IL-1a; assay: IL-1a release from BV2 microglia, celecoxib combination (Example 7); type: cell-based; conditions: Celebrex 5 uM; NTI164 7.5 uM (as headed); combination Celebrex 5 uM + NTI164 7.5 ug/ml; activated control 154.83
Procedure: (§5) The immortalized microglia cell line, BV2, was purchased from the American Tissue Culture Collection. BV2 were cultured in RPMI media containing gentamycin and supplemented with 10% fetal bovine serum (FBS) for expansion and 5% FBS when plated for experiments. All cells were from between passage numbers 39 and 45. Cells were plated at […] and treated 24 hours after plating with phosphate buffered saline (PBS, as a control) or interleurkin-1B+interferon-γ (IL-1B+IFNγ, to induce inflammation).
as §4, with “Microglia” for “Multiplex Cytokine/Chemokine Assay: Microglia”, “that” for “and data”, “averaged for analysis, at least three samples per group were run.” for “analyzed with the Bio-Plex Manager software.”

[13] = test system: IL-6; assay: IL-6 release from BV2 microglia, celecoxib combination (Example 7); type: cell-based; conditions: Celebrex 5 uM; NTI164 7.5 uM (as headed); combination Celebrex 5 uM + NTI164 7.5 ug/ml; activated control 366.33
Procedure: as §5
as §4, with “Microglia” for “Multiplex Cytokine/Chemokine Assay: Microglia”, “that” for “and data”, “averaged for analysis, at least three samples per group were run.” for “analyzed with the Bio-Plex Manager software.”

[14] = test system: TNF-a; assay: TNF-a release from BV2 microglia, celecoxib combination (Example 7); type: cell-based; conditions: Celebrex 5 uM; NTI164 7.5 uM (as headed); combination Celebrex 5 uM + NTI164 7.5 ug/ml; activated control 45
Procedure: as §5
as §4, with “Microglia” for “Multiplex Cytokine/Chemokine Assay: Microglia”, “that” for “and data”, “averaged for analysis, at least three samples per group were run.” for “analyzed with the Bio-Plex Manager software.”

[15] = test system: GM-CSF; assay: GM-CSF release from BV2 microglia, celecoxib combination (Example 7); type: cell-based; conditions: Celebrex 5 uM; NTI164 7.5 uM (as headed); combination Celebrex 5 uM + NTI164 7.5 ug/ml; activated control 768.13
Procedure: as §5
as §4, with “Microglia” for “Multiplex Cytokine/Chemokine Assay: Microglia”, “that” for “and data”, “averaged for analysis, at least three samples per group were run.” for “analyzed with the Bio-Plex Manager software.”

[16] = test system: TNF-a; assay: TNF-a, prednisone combination (Example 8); type: cell-based; conditions: PDN 5 uM; NTI164 7.5 ug/ml; combination PDN 5 uM + NTI164 7.5 ug/ml; activated control 45
From the text: (§6) Student's t-test was used for statistical analysis.

[17] = test system: IL-6; assay: IL-6, prednisone combination (Example 8); type: cell-based; conditions: PDN 5 uM; NTI164 7.5 ug/ml; combination PDN 5 uM + NTI164 7.5 ug/ml; activated control 366.33
From the text: as §6

[18] = test system: IL-1a; assay: IL-1a, prednisone combination (Example 8); type: cell-based; conditions: PDN 5 uM; NTI164 7.5 ug/ml; combination PDN 5 uM + NTI164 7.5 ug/ml; activated control 154.83
From the text: as §6

[19] = test system: GM-CSF; assay: GM-CSF, prednisone combination (Example 8); type: cell-based; conditions: PDN 5 uM; NTI164 7.5 ug/ml; combination PDN 5 uM + NTI164 7.5 ug/ml; activated control 768.13
From the text: as §6

[20] = in vitro, at low concentrations

SMILES: C=C(C)[C@@H]1CCC(C)=C[C@H]1c1c(O)cc(CCCCC)cc1O [CBD, Cannabidiol]
- Neutrophil chemotaxis and proliferation [1]: inhibit neutrophil chemotaxis and proliferation
- Allosteric modulation of CB1 [2]: negative allosteric modulator of CB1
- Affinity for CB1 ([2]; compared to Δ9-THC): low affinity
- CB1 antagonistic effect [2, 20]: weak CB1 and CB2 antagonistic effect
- Allosteric modulation of CB1 ([2]; listed as Cannabidiol): negative allosteric modulator of the cannabinoid CB1 receptor
- COX-2 expression, average +/- SEM, exposure after inflammatory insult ([3]; exposure 1 hour after inflammatory insult (interleukin and interferon gamma), control 104.26): 76.32 +/− 7.95 (SEM)
- COX-2 expression, average +/- SEM, exposure before inflammatory insult ([3]; exposure 1 hour prior to inflammatory insult (interleukin and interferon gamma), control 94.47): 84.82 +/− 7.65 (SEM)
- IL-12, average +/- SD [4]: 84.40 +/− 6.54
- TNF-alpha, average +/- SD [5]: 71.13 +/− 12.81
- Cell death by DAPI cell viability stain [6]: DAPI cell viability stain: No cell death was detected and assessed as per the DAPI cell staining method.
- COX-2 activity, individual replicate ([7]; 1 hr after treatment): 42.4 and 44.92 and 109.99 and 136.99 and 117.84 and 43.14 and 77.81 and 59.02 and 73.8
- COX-2 activity, mean ([7]; activated control mean 101.39): 78.43
- Oral bioavailability [8]: 13-19%
- Toxicity / effect on cell number and cell viability [9]: toxic in this paradigm
- Affinity for CB2 ([10]; compared to Δ9-THC): low affinity
- CB2 antagonistic effect [10, 20]: weak CB1 and CB2 antagonistic effect
- Cannabinoid content of NTI164, Day 14 [11]: 0.56 mg/mL
- Cannabinoid content of NTI164, Day 0 ([11]; NTI164 oil, room temperature, Day 0): 0.46 mg/mL
- Cannabinoid content of NTI164, Day 2 ([11]; NTI164 oil, room temperature, Day 2): 0.56 mg/mL
- Cannabinoid content of NTI164, Day 7 ([11]; NTI164 oil, room temperature, Day 7): 0.53 mg/mL
- Cannabinoid content of NTI164, Day 28 ([11]; NTI164 oil, room temperature, Day 28): 0.54 mg/mL
- Cannabinoid content of NTI164, Week 5 ([11]; NTI164 oil, room temperature, Week 5): 0.60 mg/mL
- Cannabinoid content of NTI164, Week 6 ([11]; NTI164 oil, room temperature, Week 6): 0.51 mg/mL
- Cannabinoid content of NTI164, Week 32 ([11]; NTI164 oil, room temperature, Week 32): 0.48 mg/mL

SMILES: Cc1ccc(-c2cc(C(F)(F)F)nn2-c2ccc(S(N)(=O)=O)cc2)cc1 [Celebrex, celecoxib]
- IL-1a [12]: 112.5
- IL-6 [13]: 128.50
- TNF-a [14]: 30.17
- GM-CSF [15]: 511.97

SMILES: C[C@]12C=CC(=O)C=C1CC[C@@H]1[C@@H]2C(=O)C[C@@]2(C)[C@H]1CC[C@]2(O)C(=O)CO [PDN, Prednisone]
- TNF-a [16]: 30.17
- IL-6 [17]: 228.50
- IL-1a [18]: 144.5
- GM-CSF [19]: 611.97
